How the values were obtained:
[1] = system: HEC-1 (Endometrial Carcinoma); experiment: Bliss excess, mean over the matrix (fraction); higher = more synergy
Procedure, shortened: (§1)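 Cell lines grown in DMEM/F12 or RPMI with 10% FBS were plated in 1536-well plates and held 24 hours at 37°C, 5% CO2 before 72 hours of exposure to two-drug dose matrices, with DMSO typically at 0.2%. CellTiter-Glo 2.0 luminescence gave viability, which was converted to inhibition. Vehicle wells were set to 0 and blank wells to 1. Combination Emax is the second-highest inhibition in the matrix, and Bliss excess is the observed combination effect minus the expected EA + EB − EA·EB, where EA and EB are the single-agent effects.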

[2] = system: NCI-H23 (Lung Adenocarcinoma); experiment: as above
Procedure, shortened: as §1

[3] = system: COLO-680N (Esophageal Squamous Cell Carcinoma); experiment: as above
Procedure, shortened: as §1

A2058 (Melanoma) = experiment: combination Emax (second highest fraction inhibited in the dose matrix, 72 h); higher = more inhibition; extreme values may be limits of the assay
Procedure, shortened: as §1

[4] = system: 23132-87 (Gastric Carcinoma); experiment: as above
Procedure, shortened: as §1

[5] = system: VAL (B-Cell Non-Hodgkin's Lymphoma); experiment: as above
Procedure, shortened: as §1

[6] = system: RERF-LC-Sq1 (Squamous Cell Lung Carcinoma); experiment: as above
Procedure, shortened: as §1

[7] = system: RERF-GC-1B (Gastric Carcinoma); experiment: as above
Procedure, shortened: as §1

[8] = system: REH (B-Lymphoblastic Leukemia); experiment: as above
Procedure, shortened: as §1

[9] = system: L-1236 (Hodgkin's Lymphoma); experiment: as above
Procedure, shortened: as §1

[10] = system: SHP-77 (Small Cell Lung Carcinoma); experiment: as above
Procedure, shortened: as §1

[11] = system: HCT-15 (Colorectal Carcinoma); experiment: as above
Procedure, shortened: as §1

[12] = system: NCI-H446 (Small Cell Lung Carcinoma); experiment: as above
Procedure, shortened: as §1

[13] = system: LXF-289 (Lung Adenocarcinoma); experiment: as above
Procedure, shortened: as §1

[14] = system: MKN45 (Gastric Carcinoma); experiment: as above
Procedure, shortened: as §1

[15] = system: SK-PN-DW (Other Solid Carcinomas); experiment: as above
Procedure, shortened: as §1

[16] = system: PANC-03-27 (Pancreatic Carcinoma); experiment: as above
Procedure, shortened: as §1

LN-229 (Glioblastoma) = experiment: as above
Procedure, shortened: as §1

[17] = system: HSC-39 (Gastric Carcinoma); experiment: as above
Procedure, shortened: as §1

[18] = system: OVMIU (Ovarian Carcinoma); experiment: as above
Procedure, shortened: as §1
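For Bliss excess, mean over the matrix in this document: after 72 h of two-drug dosing.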

Compound | Bliss excess [1] | Bliss excess [2] | Bliss excess [3] | combination Emax (A2058 (Melanoma)) | combination Emax [4] | combination Emax [5] | combination Emax [6] | combination Emax [7] | combination Emax [8] | combination Emax [9] | combination Emax [10] | combination Emax [11] | combination Emax [12] | combination Emax [13] | combination Emax [14] | combination Emax [15] | combination Emax [16] | combination Emax (LN-229 (Glioblastoma)) | combination Emax [17] | combination Emax [18]
Cc1cc2ncnn2cc1Nc1ncc2c(n1)n(C1CCOCC1)c(=O)n2C [AZD7648] + C=CCn1c(=O)c2cnc(Nc3ccc(N4CCN(C)CC4)cc3)nc2n1-c1cccc(C(C)(C)O)n1 [AZD1775] (first compound max 10 µM, partner max 1 µM) | -0.0318 | -0.0363 | -0.012 | 0.24 | 0.659 | 0.864 | 0.672 | 0.788 | 0.848 | 0.767 | 0.432 | 0.736 | 0.839 | 0.476 | 0.804 | 0.875 | 0.878 | 0.35 | 0.936 | 0.635
Cc1cc2ncnn2cc1Nc1ncc2c(n1)n(C1CCOCC1)c(=O)n2C [AZD7648] + CCN(CCO)CCCOc1ccc2c(Nc3cc(CC(=O)Nc4cccc(F)c4)[nH]n3)ncnc2c1 [AZD2811] (first compound max 10 µM, 7x7, partner max 1 µM) | -0.0269 | 0.016 | -0.0458 | 0.247 | 0 | 0.798 | 0.261 | 0.281 | 0.51 | 0.384 | 0.258 | 0.455 | 0.834 | 0.395 | 0.446 | 0.696 | 0.334 | 0.199 | 0.939 | 0.444
Cc1cc2ncnn2cc1Nc1ncc2c(n1)n(C1CCOCC1)c(=O)n2C [AZD7648] + CN(C)CCCOc1ccc(-c2ccc3ncc4c(c3c2)n(C2CCOCC2)c(=O)n4C)cn1 [AZD0156] (first compound max 10 µM, 7x7, partner max 1 µM) | -0.0239 | -0.0031 | -0.0078 | 0.182 | 0.0669 | 0.53 | 0.197 | 0.29 | 0.258 | 0.306 | 0.223 | 0.267 | 0.309 | 0.201 | 0.428 | 0.303 | 0.318 | 0.146 | 0.215 | 0.474
Cc1cc2ncnn2cc1Nc1ncc2c(n1)n(C1CCOCC1)c(=O)n2C [AZD7648] + C[C@@H]1COCCN1C2=NC(=NC(=C2)C3(CC3)[S@](=N)(=O)C)C4=C5C=CNC5=NC=C4 [AZD6738] (first compound max 10 µM, 7x7, partner max 10 µM) | -0.0339 | -0.0617 | 0.0237 | 0.271 | 0.841 | 0.918 | 0.804 | 0.457 | 0.771 | 0.689 | 0.493 | 0.835 | 0.786 | 0.369 | 0.793 | 0.943 | 0.824 | 0.525 | 1 | 0.528
Cc1cc2ncnn2cc1Nc1ncc2c(n1)n(C1CCOCC1)c(=O)n2C [AZD7648] + O=C(c1cc(Cc2n[nH]c(=O)c3ccccc23)ccc1F)N1CCN(C(=O)C2CC2)CC1 [Olaparib] (first compound max 10 µM, 7x7, partner max 10 µM) | 0.0079 | -0.0059 | -0.0435 | 0.0679 | 0.239 | 0.601 | 0.314 | 0.228 | 0.187 | 0.238 | 0.233 | 0.501 | 0.273 | 0.177 | 0.264 | 0.395 | 0.185 | 0.0989 | 0.267 | 0.306
NC1(C(=O)N[C@@H](CCO)c2ccc(Cl)cc2)CCN(c2ncnc3[nH]ccc23)CC1 [Capivasertib] + CC(=O)c1c(C)c2cnc(Nc3ccc(N4CCNCC4)cn3)nc2n(C2CCCC2)c1=O [Palbociclib] (first compound max 10 µM, 7x7, partner max 10 µM) | -0.0115 | 0.008 | -0.0467 | 0.638 | 0.428 | 0.626 | 0.873 | 0.458 | 0.609 | 0.861 | 0.499 | 0.665 | 0.719 | 0.691 | 0.628 | 0.615 | 0.283 | 0.376 | 0.749 | 0.383
